Data: patent publication US20240383900A1, “SUBSTITUTED PYRAZOLO [1,5-A]PYRIMIDINE-7-AMINE COMPOUNDS AS CDK INHIBITORS AND THEIR THERAPEUTIC USE” (Carrick Therapeutics Limited, priority 2021, published 2024)
Read-outs that look alike come from different tables or passages of the source.

What was measured:
Human CDK7/CycH/MAT1 = Human CDK7/CycH/MAT1 (Homo sapiens (Human), UniProt P50613); assay: Radiometric protein kinase assay (33PanQinase Activity Assay), CDK7; assay type: biochemical; settings: ATP 3 μM
Protocol: Additionally for the CDK7 assay: • Human CDK7/CycH/MAT1 (ProQinase, 0366-0360-4—Lot 2). • RBER-CHKtide (ProQinase, 0581-0000-5—Lot 106).
(§1) A radiometric protein kinase assay (^33PanQinase® Activity Assay) was used for measuring the kinase activity of the two protein kinases (CDK12/CDK7). All kinase assays were performed in 96-well FlashPlates™ from PerkinElmer (Boston, MA, USA) in a 50 μL reaction volume.
(§2) The reaction cocktail was pipetted in four steps in the following order: • 20 μL of assay buffer (standard buffer) • 5 μL of ATP solution (in H2O) • 5 μL of test compound (in 10% DMSO) • 10 μL of substrate/10 μL of enzyme solution (premixed)
For the CDK7 assay, a reaction mixture (50 μL) containing the following components was prepared: • 70 mM HEPES-NaOH (pH 7.5); • sodium orthovanadate (3 μM); • PEG-20000 (50 μg/mL); • DTT (1.2 mM); • MgCl2 (3 mM); • MnCl2 (3 mM); • purified human CDK7/CycH/MAT1 (3.3 nM—Lot 02); • RBER-CHKtide substrate (40 μg/mL—Lot 106); • ATP (3 μM); • [γ-33P]-ATP (approx. 8×10^5 cpm per well); and • test compound at the appropriate concentration such that the final concentration of DMSO was […].
(§3) The reaction mixture was incubated at 30° C. for 60 min and then stopped by the addition of 2% (v/v) H3PO4. Plates were aspirated and washed two times with 200 μL 0.9% (w/v) NaCl. Incorporation of ^33Pi was determined with a microplate scintillation count (Microbeta, Wallac).
The residual activities for each concentration and the compound IC50 values were calculated using Quattro Workflow V3.1.1 (Quattro Research GmbH, Munich, Germany). The fitting model for the IC50 determinations was “Sigmoidal response (variable slope)” with parameters “top” fixed at 100% and “bottom” at 0%. The fitting method used was a least-squares fit.

A673 cells = assay: Cytotoxicity in A673 cells (Cell Titer Glo viability); assay type: cell-based; settings: for Ratio of Biochemical Potency:Cellular Potency: CDK12 IC50 / A673 IC50; for IC50: Homo sapiens
Protocol: Cells were plated in 96-well plates at a density of […] viable cells per well in 200 μL fully supplemented growth medium (DMEM+10% heat inactivated foetal bovine serum) and incubated for 24 hours in standard tissue culture conditions. Compounds, including MLN4924, were solubilised in DMSO and then diluted in fully supplemented growth medium at 2× their final assay concentration such that the final DMSO concentration was 0.1%. Growth medium in the assay plates was replaced with 50 μL of growth medium containing 2×MLN4924 (final assay concentration: 30 nM, where tested) or vehicle only and 50 μL of growth medium containing a 2× compound concentration series or vehicle only such that each compound was at 1× final assay concentration in 100 μL.
Cells were then incubated for 72 hours in standard tissue culture conditions before viability was assessed using 50 μL Cell Titer Glo reagent (Promega) per well and luminescence measured on an EnVision plate reader. Data were normalised to vehicle control (100%) and cells treated with 0.1% Triton x-100 for 1 hour before viability measurement (0%; full cell kill). […] Viability curves generated in the presence of MLN4924 were normalised and fixed to controls treated with MLN4924.

Human CDK12 wt/CycK = Human CDK12 wt/CycK (Homo sapiens (Human), UniProt Q9NYV4); assay: Radiometric protein kinase assay (33PanQinase Activity Assay), CDK12; assay type: biochemical; settings: for CDK7/CDK12: ratio of CDK7 IC50 to CDK12 IC50, greater than 1 indicates selectivity for CDK12
Protocol: as §1, §2, §3
The fitting method used was a least-squares fit.

[1] = A673, read-out: Cellular Potency IC50 (nM) (in A673 cells)
[2] = A673 cells, 72 hours, read-out: A673 IC50
[3] = ATP 0.3 μM, read-out: CDK12 IC50
[4] = read-out: CKD12 Biochemical Potency IC50

Human CDK12 wt/CycK, sequence (Q9NYV4 whole entry): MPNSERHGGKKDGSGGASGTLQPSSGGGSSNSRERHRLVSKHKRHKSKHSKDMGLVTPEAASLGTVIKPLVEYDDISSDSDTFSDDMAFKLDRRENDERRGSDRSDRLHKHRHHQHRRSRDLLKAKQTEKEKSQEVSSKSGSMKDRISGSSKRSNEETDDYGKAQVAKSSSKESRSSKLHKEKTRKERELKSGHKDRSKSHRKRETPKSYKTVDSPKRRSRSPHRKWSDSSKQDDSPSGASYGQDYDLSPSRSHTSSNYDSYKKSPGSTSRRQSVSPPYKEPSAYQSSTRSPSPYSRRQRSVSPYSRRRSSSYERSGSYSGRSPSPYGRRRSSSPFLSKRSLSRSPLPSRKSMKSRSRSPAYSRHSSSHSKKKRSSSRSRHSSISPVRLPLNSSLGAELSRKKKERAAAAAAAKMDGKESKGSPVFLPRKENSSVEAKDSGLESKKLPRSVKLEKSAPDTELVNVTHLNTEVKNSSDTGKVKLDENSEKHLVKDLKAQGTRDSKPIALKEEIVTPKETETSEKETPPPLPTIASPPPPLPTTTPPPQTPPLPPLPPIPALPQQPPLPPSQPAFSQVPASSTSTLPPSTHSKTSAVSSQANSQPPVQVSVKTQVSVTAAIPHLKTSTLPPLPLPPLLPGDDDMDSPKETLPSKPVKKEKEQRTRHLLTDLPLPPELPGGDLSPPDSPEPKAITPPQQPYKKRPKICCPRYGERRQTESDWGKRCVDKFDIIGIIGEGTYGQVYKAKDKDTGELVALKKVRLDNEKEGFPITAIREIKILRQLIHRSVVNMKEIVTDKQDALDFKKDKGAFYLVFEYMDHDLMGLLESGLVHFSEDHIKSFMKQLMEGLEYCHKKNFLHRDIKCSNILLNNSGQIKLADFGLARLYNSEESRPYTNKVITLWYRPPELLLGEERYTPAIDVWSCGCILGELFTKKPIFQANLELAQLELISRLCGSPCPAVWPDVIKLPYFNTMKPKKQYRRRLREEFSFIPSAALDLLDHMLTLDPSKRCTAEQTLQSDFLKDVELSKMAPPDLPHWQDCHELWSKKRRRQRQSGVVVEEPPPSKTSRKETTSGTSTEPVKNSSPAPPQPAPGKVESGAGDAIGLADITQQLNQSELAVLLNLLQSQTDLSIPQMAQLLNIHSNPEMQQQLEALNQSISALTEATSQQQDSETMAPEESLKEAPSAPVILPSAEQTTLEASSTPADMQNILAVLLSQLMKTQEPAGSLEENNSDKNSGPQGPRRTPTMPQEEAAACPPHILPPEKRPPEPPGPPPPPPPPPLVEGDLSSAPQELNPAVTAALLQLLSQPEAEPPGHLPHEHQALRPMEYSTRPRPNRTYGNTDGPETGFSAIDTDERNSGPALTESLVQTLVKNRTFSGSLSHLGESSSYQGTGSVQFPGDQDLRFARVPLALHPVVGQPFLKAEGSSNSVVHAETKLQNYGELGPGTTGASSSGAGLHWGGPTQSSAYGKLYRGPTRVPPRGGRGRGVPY
Human CDK12 wt/CycK, sequence (O75909 whole entry partner): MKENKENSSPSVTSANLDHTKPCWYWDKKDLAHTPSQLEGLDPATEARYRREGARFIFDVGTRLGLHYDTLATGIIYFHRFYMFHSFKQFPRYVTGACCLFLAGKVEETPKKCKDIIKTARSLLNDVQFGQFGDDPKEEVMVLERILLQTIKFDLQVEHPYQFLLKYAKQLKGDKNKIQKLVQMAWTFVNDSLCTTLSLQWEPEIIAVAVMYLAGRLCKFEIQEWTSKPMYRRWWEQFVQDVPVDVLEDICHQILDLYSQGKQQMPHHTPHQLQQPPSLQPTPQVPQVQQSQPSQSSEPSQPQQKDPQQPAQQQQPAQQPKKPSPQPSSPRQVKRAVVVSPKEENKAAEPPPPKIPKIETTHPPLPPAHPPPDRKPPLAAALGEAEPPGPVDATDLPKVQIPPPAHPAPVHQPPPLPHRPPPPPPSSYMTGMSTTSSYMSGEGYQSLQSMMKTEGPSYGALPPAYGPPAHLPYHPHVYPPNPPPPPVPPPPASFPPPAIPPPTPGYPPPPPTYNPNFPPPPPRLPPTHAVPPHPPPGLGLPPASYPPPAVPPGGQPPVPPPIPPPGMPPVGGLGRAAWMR
Human CDK7/CycH/MAT1, sequence (P50613 whole entry): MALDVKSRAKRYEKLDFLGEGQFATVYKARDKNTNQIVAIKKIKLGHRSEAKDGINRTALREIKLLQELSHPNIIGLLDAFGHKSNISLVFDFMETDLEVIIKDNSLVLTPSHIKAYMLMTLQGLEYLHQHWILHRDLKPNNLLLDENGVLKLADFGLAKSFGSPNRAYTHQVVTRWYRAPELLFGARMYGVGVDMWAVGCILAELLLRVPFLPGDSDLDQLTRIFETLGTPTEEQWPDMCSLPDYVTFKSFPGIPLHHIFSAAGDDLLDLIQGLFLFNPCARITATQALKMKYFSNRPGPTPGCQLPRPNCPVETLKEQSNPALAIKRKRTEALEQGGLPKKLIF
Human CDK7/CycH/MAT1, sequence (P51946 whole entry partner): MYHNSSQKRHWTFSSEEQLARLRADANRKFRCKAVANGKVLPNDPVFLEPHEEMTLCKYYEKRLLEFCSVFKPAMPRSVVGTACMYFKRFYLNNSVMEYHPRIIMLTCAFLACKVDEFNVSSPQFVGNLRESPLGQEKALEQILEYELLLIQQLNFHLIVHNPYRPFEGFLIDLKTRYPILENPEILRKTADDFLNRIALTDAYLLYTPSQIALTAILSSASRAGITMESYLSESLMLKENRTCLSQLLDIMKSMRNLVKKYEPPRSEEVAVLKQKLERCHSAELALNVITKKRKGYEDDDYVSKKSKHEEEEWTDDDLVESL
Human CDK7/CycH/MAT1, sequence (P51948 whole entry partner): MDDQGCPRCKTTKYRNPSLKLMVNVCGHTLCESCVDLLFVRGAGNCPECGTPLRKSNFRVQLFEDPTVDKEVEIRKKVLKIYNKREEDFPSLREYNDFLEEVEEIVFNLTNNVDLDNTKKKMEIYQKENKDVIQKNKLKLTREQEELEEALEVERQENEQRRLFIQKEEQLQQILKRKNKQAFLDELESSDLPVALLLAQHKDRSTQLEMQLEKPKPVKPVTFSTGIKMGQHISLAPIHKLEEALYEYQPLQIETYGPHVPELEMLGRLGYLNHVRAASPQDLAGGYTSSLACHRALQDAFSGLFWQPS

Row | SMILES | IC50 (Human CDK7/CycH/MAT1) [nM] | Ratio of Biochemical Potency:Cellular Potency (A673 cells) | IC50 (A673 cells; [1]) [nM] | IC50 (A673 cells; [2]) [nM] | IC50 (Human CDK12 wt/CycK; [3]) [nM] | CDK7/CDK12 (Human CDK12 wt/CycK) | IC50 (Human CDK12 wt/CycK; [4]) [nM]
1 | O[C@H]1CNCC[C@@H]1CNc1cc(NCc2ccc(-c3ncccc3OC(F)(F)F)cc2)n2ncc(C3CC3)c2n1 [PPA-028] | 468 | 24.95 | 9.7 | 9.7 | 242 | 1.9 | 242
2 | O[C@H]1CNCC[C@@H]1CNc1cc(NCc2ccc(-c3ncccn3)cc2)n2ncc(C3CC3)c2n1 [PPA-029] | 179 | 45.00 | 1.4 | 1.4 | 63 | 2.8 | 63
3 | COc1cc(-c2ccccn2)ccc1CNc1cc(NC[C@H]2CCNC[C@@H]2O)nc2c(C3CC3)cnn12 [PPA-030] | 370 | 35.16 | 6.2 | 6.2 | 218 | 1.7 | 218
4 | O[C@H]1CNCC[C@@H]1CNc1cc(NCc2ccc(-c3ncco3)cc2)n2ncc(C3CC3)c2n1 [PPA-031] | 155 | 46.15 | 1.3 | 1.3 | 60 | 2.6 | 60
5 | c1ccc(-c2ccc(CNc3cc(NC[C@H]4CNCCO4)nc4c(C5CC5)cnn34)cc2)nc1 [PPA-032] | 2760 | 22.52 | 51.5 | 51.5 | 1160 | 2.4 | 1160
6 | c1ccc(-c2ccc(CNc3cc(N4CCOCC4)nc4c(C5CC5)cnn34)cc2)nc1 [PPA-033] | 6650 | 19.81 | 53 | 53 | 1050 | 6.3 | 1050
7 | O[C@H]1CNCC[C@@H]1CNc1cc(NCc2ccc(-c3ccccc3)cn2)n2ncc(C3CC3)c2n1 [PPA-034] | 530 | 10.71 | 11.3 | 11.3 | 121 | 4.4 | 121
8 | O[C@H]1CNCC[C@@H]1CNc1cc(NCc2ccc(-c3cscn3)cc2)n2ncc(C3CC3)c2n1 [PPA-035] | 113 | 28.89 | 1.8 | 1.8 | 52 | 2.2 | 52
9 | O[C@H]1CNCC[C@@H]1CNc1cc(NCc2ccc(-c3ncccc3C(F)(F)F)cc2)n2ncc(C3CC3)c2n1 [PPA-036] | 388 | 0.78 | 312 | 312 | 245 | 1.6 | 245
10 | c1ccc(-c2ccc(CNc3cc(N4CCNCC4)nc4c(C5CC5)cnn34)cc2)nc1 [PPA-038] | 3020 | 18.55 | 6.2 | 6.2 | 115 | 26.3 | 115
11 | FC1(F)CNCCC1CNc1cc(NCc2ccc(-c3ccccn3)cc2)n2ncc(C3CC3)c2n1 (stereo not shown) [PPA-041] | 1600 | 10.92 | 17.3 | 17.3 | 189 | 8.5 | 189
12 | c1ccc(-c2ccc(CNc3cc(N4CC5(CCNCC5)C4)nc4c(C5CC5)cnn34)cc2)nc1 [PPA-042] | 10300 | 8.69 | 232 | 232 | 2020 | 5.1 | 2020
13 | c1ccc(-c2ccc(CNc3cc(N[C@@H]4CCNC4)nc4c(C5CC5)cnn34)cc2)nc1 [PPA-043] | 6080 | 18.54 | 13.7 | 13.7 | 254 | 23.9 | 254
14 | c1ccc(-c2ccc(CNc3cc(N[C@@H]4CCCNC4)nc4c(C5CC5)cnn34)cc2)nc1 [PPA-045] | 9610 | 11.27 | 33.2 | 33.2 | 374 | 25.7 | 374
15 | CC(=O)N1CCC(CNc2cc(NCc3ccc(-c4ccccn4)cc3)n3ncc(C4CC4)c3n2)CC1 [PPA-046] | > 30000 | 12.38 | 305 | 305 | 3780 | >8 | 3780
16 | c1ccc(-c2ccc(CNc3cc(NC4CCNCC4)nc4c(C5CC5)cnn34)cc2)nc1 [PPA-048] | 1290 | 12.06 | 6.8 | 6.8 | 82 | 15.7 | 82
17 | OC1CCN(c2cc(NCc3ccc(-c4ccccn4)cc3)n3ncc(C4CC4)c3n2)CC1 [PPA-050] | 10500 | 9.44 | 44.8 | 44.8 | 423 | 24.8 | 423
18 | O=C1CC(CNc2cc(NCc3ccc(-c4ccccn4)cc3)n3ncc(C4CC4)c3n2)CCN1 (stereo not shown) [PPA-051] | 11200 | 22.98 | 28.9 | 28.9 | 664 | 16.9 | 664
19 | OC1CN(c2cc(NCc3ccc(-c4ccccn4)cc3)n3ncc(C4CC4)c3n2)C1 [PPA-052] | > 30000 | <66.3 | > 100 | > 100 | 6630 | >4.5 | 6630
20 | CN(C[C@H]1CCNC[C@@H]1O)c1cc(NCc2ccc(-c3ccccn3)cc2)n2ncc(C3CC3)c2n1 [PPA-053] | 169 | 21.20 | 2.5 | 2.5 | 53 | 3.2 | 53
21 | O[C@H]1CNCC[C@@H]1CNc1cc(NCc2ccc(-c3nccs3)cc2F)n2ncc(C3CC3)c2n1 [PPA-054] | 589 | 18.15 | 2.7 | 2.7 | 49 | 12.0 | 49
22 | NC1CN(c2cc(NCc3ccc(-c4ccccn4)cc3)n3ncc(C4CC4)c3n2)C1 [PPA-057] | 13300 | 24.65 | 50.3 | 50.3 | 1240 | 10.7 | 1240
23 | c1ccc(-c2ccc(CNc3cc(O[C@@H]4CCCNC4)nc4c(C5CC5)cnn34)cc2)nc1 [PPA-061] | 1260 | 18.30 | 5.3 | 5.3 | 97 | 13.0 | 97
24 | FC1(CNc2cc(NCc3ccc(-c4ccccn4)cc3)n3ncc(C4CC4)c3n2)CCNCC1 [PPA-062] | 3640 | 34.25 | 13.4 | 13.4 | 459 | 7.9 | 459
25 | O[C@H]1CNCC[C@@H]1CNc1cc(NCc2ccc(-c3ccccc3)cc2F)n2ncc(C3CC3)c2n1 [PPA-066] | 912 | 7.13 | 24.4 | 24.4 | 174 | 5.2 | 174
